Tests used:
[1] = test system: human primary muscle cells; experiment: Assay for myogenesis (troponin-T myotube detection); type: cell-based; details: human primary myoblasts, donor 8 and donor 4; dose dependent response; compound treatment 96 hours after differentiation induction
Source text: (§1) The inventors developed a high content screening to test in vitro compounds on human primary adult muscle cells. Human Skeletal Muscle Myoblasts (HSMM) were purchased from Lonza (https://bioscience.lonza.com). These cells were isolated from the upper arm or leg muscle tissue of normal donors and used after the second passage.
This secondary assay focused on the later stage of myogenesis when the muscle cells fuse together and form multinucleated myotubes. This assay was based on the detection of the mature troponin-T protein that is expressed in myotubes. In particular, two measurements were made:
Fusion factor, which is the % of nuclei that are inside the multinucleated myotubes compare to total nuclei and give a readout for muscle cell differentiation.
Myotube area, which is measured based on the Troponin T staining and give a readout on the myotube size and muscle fiber growth.
After one day, the differentiation is induced by a medium change. For treatment, compounds were directly added to the myoblast cultures for 96 hours. Myotubes were stained for TroponinT expression using antibodies directed against TroponinT and counterstained with Hoechst 33342 to visualize cell nuclei. Image acquisition was performed using the ImageXpress (Molecular Devices) platform. Custom module analysis based on Multi-Wavelength Cell Scoring of the MetaXpress software was used for quantification.

[2] = test system: human primary muscle stem cells; experiment: Assay for muscle stem cell commitment (Pax7/MyoD immunofluorescence high content screening); type: cell-based; details: Human Skeletal Muscle Myoblasts, donor 8 and donor 4, dose-dependent response, cultures grown 96 hours; for proportion of MyoD+ cells as percent of total cell number (myogenic commitment): MyoD+ = Pax7-/MyoD+ cells; for number of Pax7+ cells (expansion of human primary muscle stem cells): Pax7+ regardless of MyoD expression
Protocol: as §1, with “passage. Several donors were tested to ensure cell viability and purity before selecting the final donors, which are a person (Donor 8) and a person (Donor 4).” for “passage.”
The primary screening assay was based on the high content detection of two important myogenic regulatory factors (Pax7 and MyoD) by immunofluorescence. Pax7 and MyoD are the major hallmarks of muscle stem cell stemness and commitment and can be used to monitor muscle stem cell progeny. In particular, Pax7 marks early amplification while MyoD is a later marker for myogenic commitment, and combinations of these markers define the different states of proliferation, differentiation and self-renewal.
Human primary myoblasts were seeded in 384 well plates at a density of 1′000 cells per well in skeletal muscle growth medium (SKM-M, AMSbio). For treatment, compounds were directly added to the myoblast cultures 16 hours after initial plating. All cultures were then grown for 96 hours. Cells were stained for Pax7 and MyoD expression using antibodies directed against Pax7 and MyoD and counterstained with Hoechst 33342 to visualize cell nuclei. […] Pax7+ cells are defined as cells that express Pax7 regardless of MyoD expression. Image acquisition was performed using the ImageXpress (Molecular Devices) platform. Custom module analysis based on Multi-Wavelength Cell Scoring of the MetaXpress software was used for quantification.

CC(C)(C)n1nc(-c2cccc3ccccc23)c2c(N)ncnc21 [Napthyl-PP1, 1-(1,1-Dimethylethyl)-3-(1-naphthalenyl)-1H-pyrazolo[3,4-d]pyrimidin-4-amine]
myofiber growth (area covered by troponinT-positive myotubes) [1]: enhances | myogenic differentiation (Fusion Factor, percent nuclei within troponinT-positive myotubes) [1]: enhances | proportion of MyoD+ cells as percent of total cell number (myogenic commitment) [2]: increase | number of Pax7+ cells (expansion of human primary muscle stem cells) [2]: increase

Cc1ccc(-c2nn(C(C)(C)C)c3ncnc(N)c23)cc1 [PP1, 1-(1,1-Dimethylethyl)-3-(4-methylphenyl)-1H-pyrazolo[3,4-d]pyrimidin-4-amine]
myogenic differentiation (Fusion Factor, percent nuclei within troponinT-positive myotubes) [1]: enhances | proportion of MyoD+ cells as percent of total cell number (myogenic commitment) [2]: increase | number of Pax7+ cells (expansion of human primary muscle stem cells) [2]: increase

CC(C)(C)n1nc(-c2ccc(Cl)cc2)c2c(N)ncnc21 [PP2, 3-(4-Chlorophenyl)-1-(1,1-dimethylethyl)-1H-pyrazolo[3,4-d]pyrimidin-4-amine]
myogenic differentiation (Fusion Factor, percent nuclei within troponinT-positive myotubes) [1]: enhances | proportion of MyoD+ cells as percent of total cell number (myogenic commitment) [2]: increase | number of Pax7+ cells (expansion of human primary muscle stem cells) [2]: increase

— patent publication US20220041603A1, “SRC INHIBITOR COMPOUNDS FOR SKELETAL MUSCLE MODULATION, METHODS AND USES THEREOF” (SOCIETE DES PRODUITS NESTLE S.A., priority 2018, published 2022)
